Measurements reported in patent publication US12268690B2, “Treatments for mutations in acute myeloid leukemia” (OREGON HEALTH & SCIENCE UNIVERSITY, priority 2018, dated 2025).

System: freshly isolated mononuclear cells from AML samples
Assay: Ex vivo functional drug screen (MTS viability, AUC) on primary AML samples, compared by mutation or clinical group
Type: cell-based, human
Conditions: for correlation of mutation with drug sensitivity: mutation of RUNX1; for drug sensitivity of mutant cases: BCOR mutation alone
From the text: This panel contained graded concentrations of a drugs with activity against two-thirds of the tyrosine kinome as well as other non-tyrosine kinase pathways, including MAPKs, PI3K/AKT/mTOR, AMPK, ATM, Aurora kinases, CAMKs, CDKs, GSK3a/b, IκK, PKA, PKC, PLK1, and RAF. In addition, the library contained small molecule inhibitors with activity against the BCL2 family, BRD4, Hedgehog, HSP90, NOTCH/gamma-secretase, proteasome, survivin, STAT3, and WNT/beta-catenin. Drug sensitivity patterns were analyzed with respect to clinical and genetic features of tumors. We compared the average area-under-the curve (AUC) values for each drug between the de novo and transformed samples via a series of single factor ANOVAs. […] In addition, we analyzed the concordance of drug sensitivity patterns with respect to predicted target gene, gene family, or pathway for each drug. […] To create a global view of overall sensitivity or resistance of each case, we generated a heatmap of binary sensitive/resistant calls for each sample to each drug.
Correlation of drug sensitivity with mutational events was performed by assessing the range of sensitivity of cases with mutation of an individual gene (as well as co-occurring mutational events) versus cases with wild type sequence for that same gene. […] The difference in average drug sensitivity of mutant versus wild type cases for each drug/mutation pair was plotted on the horizontal axis of a volcano plot with a test for statistical significance of the comparison plotted on the vertical axis (corrected for multiple comparison false discovery rate^42; FIG. 4). […] To aid in discovery of potential mutational biomarkers of drug sensitivity, we plotted volcano plots that were specific to each individual drug (versus all possible mutational events) and for each individual gene (versus all possible drugs tested).
Ex vivo drug screens were performed on freshly isolated mononuclear cells from AML samples as previously described^41.
Ex vivo functional drug screens were performed on freshly isolated mononuclear cells from AML samples. […] Drug plates were created using inhibitors purchased from LC Laboratories and Selleck Chemicals and master stocks were reconstituted in DMSO and stored at −80° C. […] DMSO control wells and positive control wells containing a drug combination of Flavopiridol, Staurosporine and Velcade were placed on each plate, with the final concentration of DMSO ≤0.1% in all wells. Daughter plates were created using a V&P Scientific 384-well pin tool head operated by the Caliper Sciclone ALH 3000 and equipped with 0.457 mm diameter, 30 nanoliter, slotted stainless steel pins (cat num: FP1NS30). Daughter and destination plates were sealed with pealable thermal seals using a PlateLoc thermal sealer. Destination plates were stored at −20° C. for no more than three months and thawed immediately before use. Primary mononuclear cells were plated across single-agent inhibitor panels within 24 h of collection. […] After 3 d of culture at 37° C. in 5% CO2, MTS reagent (CellTiter96 AQueous One; Promega) was added, optical density was measured at 490 nm, and raw absorbance values were adjusted to a reference blank value and then used to determine cell viability (normalized to untreated control wells).
A given sample was run on one or more panels and within each panel, the majority of drugs were run without within-panel replicates. […] An additional set of ‘curve-free’ AUCs was computed for sample-inhibitor pairs run on multiple panels.
Based on the methodology used in our prior drug combination study^36, a probit regression was fit to all possible run groups using the model: (normalized_viability/100)˜1+log 10(concentration) Where for all groups there were N=7 dose-response measurements. The summary measures of curve fit were inspected and cutoffs were devised removing all runs with an AIC >12 and deviance >2.

[1] = BCOR mutation alone or co-mutation of BCOR with DNMT3A or SRSF2

Compound: CN(C)CC[C@H](CSc1ccccc1)Nc1ccc(S(=O)(=O)NC(=O)c2ccc(N3CCN(Cc4ccccc4-c4ccc(Cl)cc4)CC3)cc2)cc1[N+](=O)[O-] [ABT-737]
- drug sensitivity mutant vs wild type (average difference in AUC; top left quadrant of volcano plot) (PML.RARA): ABT-737

Compound: CC(C)n1nc(-c2ccc3oc(N)nc3c2)c2c(N)ncnc21 [INK-128]
- drug sensitivity mutant vs wild type (average difference in AUC; top left quadrant of volcano plot) (FLT3_ITD): INK-128
- drug sensitivity mutant vs wild type (average difference in AUC; top left quadrant of volcano plot) (NPM1:FLT3_ITD): ink-128

Compound: COc1c(Cl)cc2c([nH]c3cnccc32)c1NC(=O)c1cccnc1C [MLN120B]
- drug sensitivity mutant vs wild type (average difference in AUC; top left quadrant of volcano plot) (NPM1:IDH2): MLN120B
- drug sensitivity mutant vs wild type (average difference in AUC; top left quadrant of volcano plot) (NPM1:SRSF2): MLN120B

Compound: O=C(NOCC1CC1)c1ccc(F)c(F)c1Nc1ccc(I)cc1Cl [CI-1040]
- drug sensitivity mutant vs wild type (average difference in AUC; top left quadrant of volcano plot) (DNMT3A:NRAS): CI-1040 (PD184352)
- drug sensitivity mutant vs wild type (average difference in AUC; top left quadrant of volcano plot) (NPM1:DNMT3A:NRAS): CI-1040
- drug sensitivity mutant vs wild type (average difference in AUC; top left quadrant of volcano plot) (NPM1:NRAS): CI-1040 (PD184352)
- drug sensitivity mutant vs wild type (average difference in AUC; top left quadrant of volcano plot) (NRAS): CI-1040

Compound: NC1(c2ccc(-c3nc4ccn5c(=O)[nH]nc5c4cc3-c3ccccc3)cc2)CCC1 [MK-2206]
- drug sensitivity mutant vs wild type (average difference in AUC; top left quadrant of volcano plot) (WT1): MK-2206

Compound: Cn1c(=O)n(-c2ccc(C(C)(C)C#N)cc2)c2c3cc(-c4cnc5ccccc5c4)ccc3ncc21 [BEZ2345]
- drug sensitivity mutant vs wild type (average difference in AUC; top left quadrant of volcano plot) (RUNX1): BEZ2345
- correlation of mutation with drug sensitivity: correlated with sensitivity

Compound: CC1(C)CNc2cc(NC(=O)c3cccnc3NCc3ccncc3)ccc21 [motesanib]
- drug sensitivity mutant vs wild type (average difference in AUC; top left quadrant of volcano plot) (FLT3_ITD:RUNX1): motesanib

Compound: Cc1ccc(NC(=O)c2ccc(CN3CCN(C)CC3)cc2)cc1Nc1nc(-c2cccnc2)cs1 [Masitinib]
- drug sensitivity mutant vs wild type (average difference in AUC; top left quadrant of volcano plot) (FLT3_ITD:TET2): masitinb
- drug sensitivity mutant vs wild type (average difference in AUC; top left quadrant of volcano plot) (FLT3_ITD_IHD2): masitinib
- drug sensitivity mutant vs wild type (average difference in AUC; top left quadrant of volcano plot) (IDH2): Masitinib
- drug sensitivity mutant vs wild type (average difference in AUC; top left quadrant of volcano plot) (NPM1:SRSF2): Masitinb
- drug sensitivity mutant vs wild type (average difference in AUC; top left quadrant of volcano plot) (SMC1A): Masitinib

Compound: N#CCNC(=O)c1ccc(-c2ccnc(Nc3ccc(N4CCOCC4)cc3)n2)cc1 [cyt387]
- sensitivity to JAK kinase inhibitors, mutant versus wild type (average AUC difference, one-way ANOVA) [1]: no difference in sensitivity
- drug sensitivity mutant vs wild type (average difference in AUC; top left quadrant of volcano plot) (FLT3_ITD): cyt387
- drug sensitivity mutant vs wild type (average difference in AUC; top left quadrant of volcano plot) (NPM1:FLT3_ITD): cyt387
- sensitivity to JAK kinase inhibitors, mutant versus wild type (average AUC difference, one-way ANOVA) (co-mutation of BCOR with RUNX1): increased sensitivity

Compound: JAK Inhibitor I
- sensitivity to JAK kinase inhibitors, mutant versus wild type (average AUC difference, one-way ANOVA) [1]: no difference in sensitivity
- sensitivity to JAK kinase inhibitors, mutant versus wild type (average AUC difference, one-way ANOVA) (co-mutation of BCOR with RUNX1): increased sensitivity

Compound: COc1cc2nccc(Oc3ccc(NC(=O)NC4CC4)c(Cl)c3)c2cc1C(N)=O [Lenvatinib]
- drug sensitivity mutant vs wild type (average difference in AUC; top left quadrant of volcano plot) (DNMT3A): Lenvatinib
- drug sensitivity mutant vs wild type (average difference in AUC; top left quadrant of volcano plot) (FLT3_ITD): lanvatinib
- drug sensitivity mutant vs wild type (average difference in AUC; top left quadrant of volcano plot) (IDH2): Lenvatinib
- drug sensitivity mutant vs wild type (average difference in AUC; top left quadrant of volcano plot) (NPM1): Levatinib
- drug sensitivity mutant vs wild type (average difference in AUC; top left quadrant of volcano plot) (NPM1:DNMT3A): Lenvatinib
- drug sensitivity mutant vs wild type (average difference in AUC; top left quadrant of volcano plot) (NPM1:DNMT3A:FLT3): lenvantinib
- drug sensitivity mutant vs wild type (average difference in AUC; top left quadrant of volcano plot) (NPM1:FLT3_ITD): lenvatinib
- drug sensitivity mutant vs wild type (average difference in AUC; top left quadrant of volcano plot) (NPM1:IDH2): lenvatinib
- drug sensitivity mutant vs wild type (average difference in AUC; top left quadrant of volcano plot) (NPM1:SRSF2): lenvatinib
- drug sensitivity mutant vs wild type (average difference in AUC; top left quadrant of volcano plot) (NPM1:TET2: DNMT3A): Lenvatinib

Compound: COc1cc2nccc(Oc3ccc(NC(=O)Nc4cc(C)on4)c(Cl)c3)c2cc1OC [Tivozanib]
- drug sensitivity mutant vs wild type (average difference in AUC; top left quadrant of volcano plot) (CELSR2): Tivozanib (AV-951)
- drug sensitivity mutant vs wild type (average difference in AUC; top left quadrant of volcano plot) (FLT3_ITD): tivozanib
- drug sensitivity mutant vs wild type (average difference in AUC; top left quadrant of volcano plot) (NPM1): Tivozanib
- drug sensitivity mutant vs wild type (average difference in AUC; top left quadrant of volcano plot) (NPM1:FLT3_ITD): Tivozanib
- drug sensitivity mutant vs wild type (average difference in AUC; top left quadrant of volcano plot) (NPM1:FLT3_ITD:DNMT3A): tivozanib

Compound: Cc1ccc2nc(NCCN)c3ncc(C)n3c2c1 [BMS-345541, N′-(1,8-dimethyl-4-imidazo[1,2-a]quinoxalinyl)ethane-1,2-diamine]
- drug sensitivity mutant vs wild type (average difference in AUC; top left quadrant of volcano plot) (PDS5B): BMS-345541

Compound: COc1cc2c(Oc3ccc4[nH]c(C)cc4c3F)ncnc2cc1OCCCN1CCCC1 [Cediranib]
- drug sensitivity mutant vs wild type (average difference in AUC; top left quadrant of volcano plot) (FLT3_ITD:RUNX1): cediranib
- drug sensitivity mutant vs wild type (average difference in AUC; top left quadrant of volcano plot) (RUNX1): Cediranib
- drug sensitivity mutant vs wild type (average difference in AUC; top left quadrant of volcano plot) (U2AF1): Cediranib (AZD2171)
- correlation of mutation with drug sensitivity: correlated with sensitivity

Compound: NC(=O)c1cnc(N[C@@H]2CCCC[C@@H]2N)nc1Nc1cccc(-n2nccn2)c1 [PRT062607]
- drug sensitivity mutant vs wild type (average difference in AUC; top left quadrant of volcano plot) (NPM1:DNMT3A): PRT062607

Compound: Nc1cccc2c1CN(C1CCC(=O)NC1=O)C2=O (stereo not drawn) [Lenalidomide]
- drug sensitivity mutant vs wild type (average difference in AUC; top left quadrant of volcano plot) (NPM1): Lenalidomide
- drug sensitivity mutant vs wild type (average difference in AUC; top left quadrant of volcano plot) (NPM1:SRSF2): lenalidomide

Compound: C[C@@H](Oc1cc(-c2cnn(C3CCNCC3)c2)cnc1N)c1c(Cl)ccc(F)c1Cl [Crizotinib]
- drug sensitivity mutant vs wild type (average difference in AUC; top left quadrant of volcano plot) (BCOR): Crizotinib
- drug sensitivity of mutant cases: did show sensitivity
- drug sensitivity mutant vs wild type (average difference in AUC; top left quadrant of volcano plot) (FLT3_ITD): crizotinib
- drug sensitivity mutant vs wild type (average difference in AUC; top left quadrant of volcano plot) (FLT3_ITD:SRSF2): crizotinib
- drug sensitivity mutant vs wild type (average difference in AUC; top left quadrant of volcano plot) (IDH2): Crizotinib
- drug sensitivity mutant vs wild type (average difference in AUC; top left quadrant of volcano plot) (NPM1:CEBPA): Crizotinib
- drug sensitivity mutant vs wild type (average difference in AUC; top left quadrant of volcano plot) (NPM1:FLT3_ITD): crizotinib
- drug sensitivity mutant vs wild type (average difference in AUC; top left quadrant of volcano plot) (SMC1A): crizotinib
- drug sensitivity mutant vs wild type (average difference in AUC; top left quadrant of volcano plot) (SRSF2:IDH2): Crizotinib

Compound: Cn1c(Nc2ccc(C(F)(F)F)cc2)nc2cc(Oc3ccnc(-c4ncc(C(F)(F)F)[nH]4)c3)ccc21 [RAF265, 1-methyl-5-((2-(5-(trifluoromethyl)-1H-imidazol-2-yl)pyridin-4-yl)oxy)-N-(4-(trifluoromethyl)phenyl)-1H-benzo[d]imidazol-2-amine]
- drug sensitivity mutant vs wild type (average difference in AUC; top left quadrant of volcano plot) (BCOR): RAF265
- drug sensitivity mutant vs wild type (average difference in AUC; top left quadrant of volcano plot) (WT1): RAF265

Compound: CNC(=O)c1c(F)cccc1Nc1nc(Nc2cc3c(cc2OC)CCN3C(=O)CN(C)C)nc2[nH]ccc12 [GSK-1838705A]
- drug sensitivity mutant vs wild type (average difference in AUC; top left quadrant of volcano plot) (IDH2): GSK-1838705A
- drug sensitivity mutant vs wild type (average difference in AUC; top left quadrant of volcano plot) (NPM1:IDH2): GSK-1838705A
- drug sensitivity mutant vs wild type (average difference in AUC; top left quadrant of volcano plot) (NPM1:SRSF2): GSK-183705A
- drug sensitivity mutant vs wild type (average difference in AUC; top left quadrant of volcano plot) (SMC1A): GSK-1838705A
- drug sensitivity mutant vs wild type (average difference in AUC; top left quadrant of volcano plot) (SRSF2:IDH2): GSK-1838705A

Compound: O=c1[nH]c(-c2ccc(C(F)(F)F)cc2)nc2c1CSCC2 [XAV-939, 3,5,7,8-Tetrahydro-2-[4-(trifluoromethyl)phenyl]-4H-thiopyrano[4,3-d]pyrimidin-4-one]
- drug sensitivity mutant vs wild type (average difference in AUC; top left quadrant of volcano plot) (BCOR): XAV-939
- drug sensitivity of mutant cases: did show sensitivity
- drug sensitivity mutant vs wild type (average difference in AUC; top left quadrant of volcano plot) (BCOR:ASXL1): XAV-939
- drug sensitivity mutant vs wild type (average difference in AUC; top left quadrant of volcano plot) (BCOR:DNMT3A): XAV-939
- drug sensitivity mutant vs wild type (average difference in AUC; top left quadrant of volcano plot) (BCOR:SRSF2): XAV-939

Compound: CC(C)(C)c1ccc(S(=O)(=O)/C=C/C#N)cc1 [Bay 11-7085]
- drug sensitivity mutant vs wild type (average difference in AUC; top left quadrant of volcano plot) (SMC1A): Bay 11-
